Patent publication US20230413808A1, “Bioactive complexes” (priority 2020, published 2023)

Legend:
Type in all cases: physicochemical
[1] = Humectancy assay; settings: dried at 54° C., then 97% relative humidity at 25° C.; weight after/before x 100
Description: The complexes of the interaction assay were used to conduct a humectancy assay. […] After reweighing on an analytical balance, the trays were placed in a climate chamber and stored for at least 2 days at 54° C. or until no further weight change was observed. […] The air tight box was 20 cm×12 cm×7 cm. In the box a chicken wire construct was used to create two levels with 10-20 ml of saturated solution of dipotassium sulfate in a petri dish in a lower level, and the samples in an upper level. Boxes were located into an incubator at 25° C. The boxes were incubated for at least 5 days at 25° C. before use to allow equilibration of temperature and humidity. Hereafter, the trays were reweighed.
The change in humectancy by combining a pesticide and polyelectrolyte is expressed as percent value by multiplying the sample weight after incubation (w2) with 100 divided with the sample weight before incubation (w1) using the following equation: […]
To evaluate the effect of the interaction of the active ingredient and polyelectrolyte on humectancy (synergetic/antagonistic/no effect), the determined Humectancy of the samples containing both active ingredient and polyelectrolyte “Humectancy (blend)” was divided by the theoretical value of Humectancy of the blend provided by respective proportion (% AI; % PE) of each pesticide and polyelectrolyte using the following equation: […]
According to this formula, a positive result of more than 1 is indicative of synergy.
The complexes obtained with the method of WO2010035118, with both ratios of 2:1 and 1:5 (PAA:AI) were tested for humectancy. […] For each sample, the test was carried in triplicate.
For each sample, the test was carried in triplicate.

[2] = Visual interaction of active ingredient with polyelectrolyte PAA
Description: (§1) To determine interaction between polyelectrolytes (PE; Table 1) and active ingredients (AI; Table 2) aqueous stock solutions of about 200 g/L of the PE and of the active ingredients were prepared. The polyelectrolytes were diluted in water and stirred on magnetic stirrer for at least 30 minutes until a homogenous clear solution was obtained (ratios and amounts are presented in Table 4). The active ingredients were dissolved in water on magnetic stirrer or, if they weren't water soluble, suspended in water and milled by adding glass beads (1 mm) in a stainless steel metal beaker until they reach a volume-based average particle size below 20 μm (90% of particles below 20 μm), as determined by laser diffraction. After that the mixture was filtered with a sieve to remove glass beads and the filtrate was used for further analysis.
(§2) A polyelectrolyte solution, PAA or chitosan, was added to a 100-150 mL glass beaker, followed by water and an active ingredient solution/suspension. The mixture was stirred for at least 4 hours, and samples were observed after at least 16 hours. The visual observable interactions were divided into five categories (see Table 3). The categories were chosen by comparison to a blank sample containing the same concentration of active ingredient in water but without polyelectrolyte. […] Interactions were studied over a large range of active ingredient to polyelectrolyte ratios, including 10.000:1 (w/w), 1000:1 (w/w), 100:1 (w/w), 10:1 (w/w), 1:1 (w/w), 1:10 (w/w), 1:100 (w/w) and 1:1000) (w/w).

[3] = Visual interaction with polyanion sodium lignosulfonate; settings: visible complex formation
[4] = Visual interaction of active ingredient with chitosan; design: key to Visual observation category, Active ingredient: chitosan: P: Formation of a precipitate; G: Formation of a gel; C: Formation of a coacervate; V: Increase/decrease of the sediment volume; S: Decrease of solid by increase of solved active ingredient; No visual observable interaction
Description: as §1, §2

[5] = ratio active ingredient:PAA 1:1 (w/w)
[6] = ratio active ingredient:PAA 1:10 (w/w)
[7] = ratio active ingredient:PAA 1:100 (w/w)
[8] = ratio active ingredient:PAA 10.000:1 (w/w)
[9] = ratio active ingredient:PAA 1.000:1 (w/w)
[10] = ratio active ingredient:PAA 1:1000 (w/w)
[11] = ratio active ingredient:PAA 100:1 (w/w)
[12] = ratio active ingredient:chitosan 1.000:1 (w/w)
[13] = ratio active ingredient:chitosan 1:1 (w/w)
[14] = ratio active ingredient:chitosan 1:10 (w/w)
[15] = ratio active ingredient:chitosan 1:100 (w/w)
[16] = ratio active ingredient:chitosan 2:1 (w/w)
[17] = ratio active ingredient:chitosan 5:1 (w/w)
[18] = ratio active ingredient:chitosan 10.000:1 (w/w)
[19] = ratio active ingredient:chitosan 10:1 (w/w)
[20] = ratio active ingredient:chitosan 100:1 (w/w)

In the case of `O=[N+]([O-])/N=C1\NCCN1Cc1ccc(Cl)nc1` [Imidacloprid, (NE)-N-[1-[(6-chloropyridin-3-yl)methyl]imidazolidin-2-ylidene]nitramide], the Humectancy [1] is reported as 108.4%, the “Visual observation category, Active ingredient: PAA” value (“Visual observation category … PAA” for short) [2, 5] is reported as “N” and the “Visual observation category … PAA” value [2, 6] is reported as “N”. For the same compound, the “Visual observation category … PAA” value [2, 7] was “N”, the “Visual observation category … PAA” value ([2]; ratio active ingredient:PAA 2:1 (w/w)) was “N” and the “Visual observation category … PAA” value ([2]; ratio active ingredient:PAA 5:1 (w/w)) was “No”. The “Visual observation category … PAA” value [2, 8] was “N”.

With `O=C(O)[C@@H]1CCCN1` [Proline] the “Visual observation category … PAA” value [2, 9] was “N”, the “Visual observation category … PAA” value [2, 5] was “N” and the “Visual observation category … PAA” value [2, 6] was “N”. The “Visual observation category … PAA” value [2, 7] was “N”, the “Visual observation category … PAA” value [2, 10] was “N” and the “Visual observation category … PAA” value [2, 8] was “N”. The “Visual observation category … PAA” value ([2]; ratio active ingredient:PAA 10:1 (w/w)) was “N” and the “Visual observation category … PAA” value [2, 11] was “N”.

In the case of `O=[PH]([O-])[O-].[K+].[K+]` [K2HPO3], the “Interaction with the polyanion sodium lignosulfonate” value [3] is reported as “did not form a visible complex”, the “Visual observation category … PAA” value [2, 9] is reported as “N” and the “Visual observation category … PAA” value [2, 6] is reported as “N”. For the same compound, the “Visual observation category … PAA” value [2, 7] was “N”, the “Visual observation category … PAA” value [2, 8] was “N” and the “Visual observation category … PAA” value [2, 11] was “N”.

For `CCCCCCCCC(=O)O` [Pelargonic acid, nonanoic acid], the “Interaction with the polyanion sodium lignosulfonate” value [3] was “did not form a visible complex”, the “Visual observation category … PAA” value [2, 7] was “N” and the “Visual observation category … PAA” value [2, 10] was “N”. For the same compound, the “Visual observation category … PAA” value [2, 8] was “N”.

With `O=C(O)COc1ccc(Cl)cc1Cl` [2,4D, 2-(2,4-dichlorophenoxy)acetic acid] the “Visual observation category, Active ingredient: chitosan” value (shortened to “Visual observation category … chitosan”) [4, 12] was “N”, the “Visual observation category … chitosan” value [4, 13] was “P” and the “Visual observation category … chitosan” value [4, 14] was “N”. For the same compound, the “Visual observation category … chitosan” value [4, 15] was “N”, the “Visual observation category … chitosan” value [4, 16] was “P” and the “Visual observation category … chitosan” value [4, 17] was “P”. For the same compound, the “Visual observation category … chitosan” value [4, 18] was “N”, the “Visual observation category … chitosan” value [4, 19] was “P” and the “Visual observation category … chitosan” value [4, 20] was “P”. The Humectancy [1] was 212.7%, the “Interaction with the polyanion sodium lignosulfonate” value [3] was “did not form a visible complex” and the “Visual observation category … PAA” value [2, 5] was “G/P”. For the same compound, the “Visual observation category … PAA” value [2, 10] was “N” and the “Visual observation category … PAA” value [2, 8] was “N”.

In the case of `CNC(=N[N+](=O)[O-])NCc1cnc(Cl)s1` [Clothianidin, 1-[(2-chloro-1,3-thiazol-5-yl)methyl]-3-methyl-2-nitroguanidine], the Humectancy [1] is reported as 120.0%, the “Visual observation category … PAA” value [2, 6] is reported as “N” and the “Visual observation category … PAA” value [2, 7] is reported as “N”. The “Visual observation category … PAA” value [2, 10] was “N” and the “Visual observation category … PAA” value [2, 8] was “N”.

In the case of `C[C@@H]1C/C=C/C=C/C=C/C=C/[C@H](O[C@@H]2O[C@H](C)[C@@H](O)[C@H](N)[C@@H]2O)C[C@@H]2O[C@](O)(C[C@@H](O)C[C@H]3O[C@@H]3/C=C/C(=O)O1)C[C@H](O)[C@H]2C(=O)O` [Natamycin, (1R,3S,5R,7R,8E,12R,14E,16E,18E,20E,22R,24S,25R,26S)-22-[(2R,3S,4S,5S,6R)-4-amino-3,5-dihydroxy-6-methyloxan-2-yl]oxy-1,3,26-trihydroxy-12-methyl-10-oxo-6,11,28-trioxatricyclo[22.3.1.05,7]octacosa-8,14,16,18,20-pentaene-25-carboxylic acid], the Interaction with chitosan [4] is reported as “interact”, the “Visual observation category … PAA” value [2, 9] is reported as “N” and the “Visual observation category … PAA” value [2, 6] is reported as “N”. For the same compound, the “Visual observation category … PAA” value [2, 7] was “N”.

For `COc1c(Cl)ccc(Cl)c1C(=O)O` [Dicamba, 3,6-dichloro-2-methoxybenzoic acid], the “Visual observation category … chitosan” value [4, 12] was “P”, the “Visual observation category … chitosan” value [4, 13] was “N” and the “Visual observation category … chitosan” value [4, 14] was “N”. The “Visual observation category … chitosan” value [4, 15] was “N”, the “Visual observation category … chitosan” value [4, 16] was “N” and the “Visual observation category … chitosan” value [4, 17] was “P”. The “Visual observation category … chitosan” value [4, 18] was “N”, the “Visual observation category … chitosan” value [4, 19] was “P” and the “Visual observation category … chitosan” value [4, 20] was “P”. The “Interaction with the polyanion sodium lignosulfonate” value [3] was “did not form a visible complex”, the “Visual observation category … PAA” value [2, 6] was “N” and the “Visual observation category … PAA” value [2, 7] was “N”. For the same compound, the “Visual observation category … PAA” value ([2]; ratio active ingredient:PAA 100.000:1 (w/w)) was “N”.

For `O=[PH]([O-])[O-].[Na+].[Na+]` [Na2HPO3], the “Interaction with the polyanion sodium lignosulfonate” value [3] was “did not form a visible complex”, the “Visual observation category … PAA” value [2, 9] was “N” and the “Visual observation category … PAA” value [2, 6] was “N”. For the same compound, the “Visual observation category … PAA” value [2, 7] was “N”, the “Visual observation category … PAA” value [2, 8] was “N” and the “Visual observation category … PAA” value [2, 11] was “N”.

For `N.N.O=[PH](O)O` [(NH4)2HPO3], the “Interaction with the polyanion sodium lignosulfonate” value [3] was “did not form a visible complex”, the “Visual observation category … PAA” value [2, 9] was “N” and the “Visual observation category … PAA” value [2, 6] was “N”. For the same compound, the “Visual observation category … PAA” value [2, 7] was “N”, the “Visual observation category … PAA” value [2, 8] was “N” and the “Visual observation category … PAA” value [2, 11] was “N”.

With `CCO[PH](=O)O` [Fosetyl Al] the Humectancy [1] was 137.0%, the “Visual observation category … PAA” value [2, 6] was “N” and the “Visual observation category … PAA” value [2, 7] was “N”. The “Visual observation category … PAA” value [2, 10] was “N” and the “Ratios at which active ingredient interacted (w/w; active ingredient:polycation)” value ([2]; summary of Table 4) was “from 10.000:1 to 1:1”.

In the case of `O=C1c2ccccc2C(=O)N1SC(Cl)(Cl)Cl` [folpet, N-(trichloromethylthio)phthalimide], the “Interaction with the polycation PAA” value [2] is reported as “interacts over a large range of ratio's”.
